Earlier results as cited in patent US6107296A, “Neuroprotective use of triazolo-pyridazine derivatives” (Merck Sharp & Dohme, Ltd., priority 1997, dated 2000).

Key:
[1] = tested on: selectively vulnerable neuronal populations in the gerbil forebrain; conditions: gerbil forebrain ischemia model
[2] = tested on: GABAA receptor subtypes containing the α1 and α3 or α5 subunits; conditions: partial agonist at each of the α1, α3 or α5 containing receptors
[3] = tested on: GABAA receptor subtypes containing the α1 and α3 or α5 subunits

C[C@@H]1CN(C(=O)c2cc3c(C(=O)OC(C)(C)C)ncn3c3ccc(Cl)cc23)C[C@H](C)N1 [PNU-101017]
neuronal survival [1]: dose-related increase in neuronal survival | intrinsic activity relative to the full agonist diazepam [2]: approximately 50% | affinity for GABAA receptor subtypes [3]: high affinity
